This note sets out measurements from PubChem BioAssay (NCI).

What all share (experiment): DTP human tumour cell line panel, 48 h
Experiment [1] deals with A498 renal.
For experiment [2], the system named is BT-549 breast.
Experiment [3] deals with CAKI-1 renal.
Experiment [4] relates to HCT-15 colon.
The test system of experiment [5] is LOX IMVI melanoma.
The subject of experiment [6] is NCI/ADR-RES ovarian.
The subject of experiment [7] is OVCAR-3 ovarian.
The test system of experiment [8] is OVCAR-8 ovarian.
In experiment [9] the test system is TK-10 renal.
In experiment [10] the test system is U251 CNS.

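Test compounds were applied to cells in 96-well plates for 48 hours at 5 doses. At the TGI there is no net growth.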 Where a SMILES comes first, the peptide text is derived from it. [ ]: non-standard residue; d: D form. Ava = NCCCCC(=O)O; Mpa = O=C(O)CCS A value given as a limit tells only on which side of the number the result lay.

For orientation: TGI means the concentration at which net growth stops. Take `CCN(CC)Cc1cc(N=Nc2c(O)ccc3c(N=Nc4ccc(O)c(CN(CC)CC)c4)c(O)ccc23)ccc1O`: the total growth inhibition concentration (TGI) in [1] is 27.9 µM; in [2] it was 9.11 µM; in experiment [3], 8.25 µM; in experiment [4], 4.7 µM; in experiment [5], 3.37 µM; in experiment [6], 33 µM. Besides, the total growth inhibition concentration (TGI) is above 20.7 µM in experiment [7], 5.27 µM in experiment [8], 18.8 µM in experiment [9] and 15.5 µM in [10].
On to `CCO/N=C\c1ccc2oc(-c3ccccc3)cc(=O)c2c1`, for which the TGI is 21.9 µM in experiment [1]; 24.4 µM in experiment [2]; 41.7 µM in experiment [3]; 12.4 µM in [4]; above 48.7 µM in experiment [5]; 0.436 µM in experiment [6]. In addition, the TGI is 0.913 µM in [7], 12.5 µM in experiment [8], 34 µM in experiment [9] and 17.6 µM in experiment [10].
In the case of `CC(NC(=O)CCS)C(=O)NC(C)C(=O)NC(Cc1c[nH]c2ccccc12)C(=O)NC(Cc1c[nH]cn1)C(=O)NC(CO)C(=O)NC(Cc1c[nH]c2ccccc12)C(=O)NCCCCC(=O)NC(C)C(=O)NC(CCC(N)=O)C(=O)NC(CCCCN)C(=O)NC(C)C(=O)NC(CCCNC(=N)N)C(=O)NC(CCCCN)C(N)=O` (centres undefined) ([Mpa]AAWHSW[Ava]AQKARK-NH2; configuration not given here), the TGI in experiment [1], in experiment [2], in experiment [3], in [4], in experiment [5] and in [6] was above 100 µM each time. The TGI in experiment [7], in experiment [8], in experiment [9] and in experiment [10] was above 100 µM throughout.
In the case of `CCOC(=O)NC(Nc1ccc(F)cc1F)(C(F)(F)F)C(F)(F)F`, the TGI in [1], in experiment [2], in [3], in experiment [4], in [5] and in [6] was above 100 µM each time. Also, the total growth inhibition concentration (TGI) in experiment [7], in experiment [8], in experiment [9] and in [10] was above 100 µM in each case.
In the case of `Cc1cc2ncn(CC(=O)O)c2cc1C`, the TGI in experiment [1], in [2], in [3], in experiment [4], in experiment [5] and in [6] was above 100 µM throughout. Also, the TGI in experiment [7], in experiment [8], in experiment [9] and in [10] was above 100 µM in each case.
`CC(C#N)(NO)C(C)(C#N)NO` (centres undefined): the TGI in experiment [1], in experiment [2], in experiment [3], in [4], in experiment [5] and in [6] was above 100 µM throughout. In addition, the total growth inhibition concentration (TGI) in [7], in [8], in experiment [9] and in experiment [10] was above 100 µM throughout.
On to `COc1ccc(N2C(=O)C3ON(Cc4ccc(CC(N)=O)cc4)C(c4c5ccccc5c(C)c5ccccc45)C3C2=O)cc1` (centres undefined), for which the TGI was above 100 µM in experiment [1]; above 100 µM in experiment [2]; above 100 µM in experiment [3]; 74.9 µM in [4]; above 100 µM in [5]; above 100 µM in [6]. Besides, the total growth inhibition concentration (TGI) in [7] is above 100 µM; in experiment [8] it was above 100 µM; in experiment [9] it was 47.8 µM; in experiment [10] it was above 100 µM.
As for `COc1ccc(SCc2cc(OC)ccc2OC)cc1`, the concentration for total growth inhibition (TGI) in experiment [1] is above 87.1 µM; in experiment [2] it was above 74.3 µM; in experiment [3], above 100 µM; in experiment [4] it was above 66.3 µM; in experiment [5], above 100 µM; in [6], above 100 µM. Moreover, the TGI was above 91.7 µM in experiment [7], above 100 µM in [8], above 100 µM in [9] and above 100 µM in experiment [10].
For the molecule `O=C(N/N=C\c1ccc(Cl)cc1)Nc1ccc2ccccc2c1`, the total growth inhibition concentration (TGI) in experiment [1], in experiment [2], in experiment [3], in experiment [4], in experiment [5] and in [6] was above 100 µM in each case. The TGI in experiment [7] is above 100 µM; in experiment [8] it was 73.2 µM; in [9], above 100 µM; in [10], 63.5 µM.
For the molecule `Cc1ccc([N+](=O)[O-])cc1S(=O)(=O)Nc1ccc(C2=NN(S(=O)(=O)c3cc([N+](=O)[O-])ccc3C)C(c3cccs3)C2)cc1` (centres undefined), the total growth inhibition concentration (TGI) in experiment [1] was 78.6 µM; in experiment [2], above 100 µM; in [3], above 100 µM; in experiment [4], above 100 µM; in experiment [5], above 100 µM; in experiment [6], above 100 µM. The TGI in experiment [7] was 52.6 µM; in experiment [8], above 100 µM; in [9] it was above 100 µM; in experiment [10] it was above 100 µM.
`COC(=O)C1(Cc2ccc3c(c2)CCC3)Cc2ccc3c(c2C1=O)CCC3` (centres undefined): the TGI in experiment [1] was 46.5 µM; in [2] it was above 46.1 µM; in [3], above 100 µM; in experiment [4] it was above 40.5 µM; in experiment [5], above 65.3 µM; in experiment [6] it was 13.8 µM. The TGI is 52.8 µM in [7], above 100 µM in [8], above 90.1 µM in experiment [9] and above 69.6 µM in experiment [10].
For the molecule `CCC1c2[nH]c3ccccc3c2C[C@H]2C(=O)NC(C)C(=O)N12` (some centres undefined), the TGI in [1], in experiment [2], in experiment [3], in experiment [4], in experiment [5] and in experiment [6] was above 100 µM each time. For the same molecule, the TGI in [7], in experiment [8], in experiment [9] and in [10] was above 100 µM in each case.
In the case of `O=C1/C(=C/c2cccc([N+](=O)[O-])c2)N=C(c2ccccc2)N1c1nc2ccc(Sc3ccccc3)cc2[nH]1`, the TGI in [1], in experiment [2], in experiment [3], in experiment [4], in experiment [5] and in experiment [6] was above 100 µM in each case. Further, the TGI in experiment [8], in [9] and in experiment [10] was above 100 µM throughout.
